Earlier results on 1 compound are cited in US8309133B2, “Nanoparticulate quinazoline derivative formulations” (Alkermes Pharma Ireland Limited, priority 2005, dated 2012).

Where two headings read alike, the source gives them in different places.

For series [1] the following is noted: oral tablet.
The conditions of series [2]: water at 37° C.

On to `C#Cc1cccc(Nc2ncnc3cc(OCCOC)c(OCCOC)cc23)c1.Cl` [erlotinib HCl, N-(3-ethynylphenyl)-6,7-bis(2-methoxyethoxy)-4-quinazolinamine], for which the Absorption is recorded as 100% in series [1] (administered with food) and 60% in series [1] (without food). The Solubility in water result in series [2] is recorded as “very slightly soluble”.
